Measured values as given in patent US20050075375A1 (priority 2003, published 2005).

tested on: monocistronic NK5.1 HCV replicon in Huh7 cells; test: HCV replicon assay, monocistronic replicon cell line; type: cell-based, hepatitis C virus; conditions: Hepatitis C virus, Huh-7, 72 h; table T3 (compounds 471-640); monocistronic replicon in Huh7 cells, 3 days incubation, HCV RNA/GAPDH RNA by TaqMan RT-PCR; read-out: Mono EC50 Median
Method in brief: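 Huh7 cells carrying the monocistronic NK5.1 replicon, seeded 24 h before dosing, were exposed to six-point half-log compound series (0.6% DMSO) for 3 days at 37 °C. Replicon RNA was quantified by TaqMan RT-PCR, normalised to GAPDH and compared with DMSO controls to derive EC50.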

Row | Compound | EC50 [µM]
1 | Cn1nc(-c2ccccn2)nc1-c1cc(Br)ccc1O [Compound 596, 4-Bromo-2-(2-methyl-5-pyridin-2-yl-2H-[1,2,4]triazol-3-yl)-phenol] | 15
2 | Cn1nc(-c2ccccn2)nc1-c1cc([N+](=O)[O-])ccc1O [Compound 597, 4-Nitro-2-(2-methyl-5-pyridin-2-yl-2H-[1,2,4]triazol-3-yl)-phenol] | 11
3 | COc1ccc(O)c(-c2nc(-c3ccccn3)nn2C)c1 [Compound 598, 4-Methoxy-2-(2-methyl-5-pyridin-2-yl-2H-[1,2,4]triazol-3-yl)-phenol] | > 32
4 | Cn1nc(-c2ccccn2)nc1-c1cc(Cl)ccc1O [Compound 599, 4-Chloro-2-(2-methyl-5-pyridin-2-yl-2H-[1,2,4]triazol-3-yl)-phenol] | 12
5 | Cn1nc(-c2ccccn2)nc1-c1ccc(OCc2ccccc2)cc1O [Compound 600, 5-Benzyloxy-2-(2-methyl-5-pyridin-2-yl-2H-[1,2,4]triazol-3-yl)-phenol] | 5
6 | COc1ccc(-c2nc(-c3ccccn3)nn2C)c(O)c1 [Compound 601, 5-Methoxy-2-(2-methyl-5-pyridin-2-yl-2H-[1,2,4]triazol-3-yl)-phenol] | > 32
7 | Cn1nc(-c2ccccn2)nc1-c1ccccc1O [Compound 602, 2-(2-methyl-5-pyridin-2-yl-2H-[1,2,4]triazol-3-yl)-phenol] | > 32
8 | COc1cccc(-c2nc(-c3ccccn3)nn2C)c1O [Compound 603, 6-Methoxy-2-(2-methyl-5-pyridin-2-yl-2H-[1,2,4]triazol-3-yl)-phenol] | > 32
9 | Cn1nc(-c2ccccn2)nc1-c1cc(O)ccc1O [Compound 604, 4-Hydroxy-2-(2-methyl-5-pyridin-2-yl-2H-[1,2,4]triazol-3-yl)-phenol] | 37.6
10 | Cn1nc(-c2ccccn2)nc1-c1c(O)ccc2ccccc12 [Compound 605, 1-(2-methyl-5-Pyridin-2-yl-2H-[1,2,4]triazol-3-yl)-naphthalen-2-ol] | 9
11 | Cn1nc(-c2ccccn2)nc1-c1ccc2ccccc2c1O [Compound 606, 2-(2-Methyl-5-pyridin-2-yl-2H-[1,2,4]triazol-3-yl)-naphthalen-1-ol] | 2.4
12 | Cc1cccnc1-c1nc(-c2cc([N+](=O)[O-])ccc2O)n(C)n1 [Compound 607, 4-Nitro-2-[2-methyl-5-(3-methyl-pyridin-2-yl)-2H-[1,2,4]triazol-3-yl]-phenol] | 2.8
13 | Cc1cccnc1-c1nc(-c2cc(F)ccc2O)n(C)n1 [Compound 608, 4-Fluoro-2-[2-methyl-5-(3-methyl-pyridin-2-yl)-2H-[1,2,4]triazol-3-yl]-phenol] | 8.1
14 | COc1ccc(O)c(-c2nc(-c3ncccc3C)nn2C)c1 [Compound 609, 4-Methoxy-2-[2-methyl-5-(3-methyl-pyridin-2-yl)-2H-[1,2,4]triazol-3-yl]-phenol] | 17
15 | Cc1cccnc1-c1nc(-c2cc(Cl)ccc2O)n(C)n1 [Compound 610, 4-Chloro-2-[2-methyl-5-(3-methyl-pyridin-2-yl)-2H-[1,2,4]triazol-3-yl]-phenol] | 2.5
16 | Cc1cccnc1-c1nc(-c2ccc(OCc3ccccc3)cc2O)n(C)n1 [Compound 611, 5-Benzyloxy-2-[2-methyl-5-(3-methyl-pyridin-2-yl)-2H-[1,2,4]triazol-3-yl]-phenol] | > 3.2
17 | Cc1cccnc1-c1nc(-c2cc(Br)ccc2O)n(C)n1 [Compound 612, 4-Bromo-2-[2-methyl-5-(3-methyl-pyridin-2-yl)-2H-[1,2,4]triazol-3-yl]-phenol] | 2.4
18 | COc1ccc(-c2nc(-c3ncccc3C)nn2C)c(O)c1 [Compound 613, 5-Methoxy-2-[2-methyl-5-(3-methyl-pyridin-2-yl)-2H-[1,2,4]triazol-3-yl]-phenol] | 6.4

Row | Compound | EC50 [µM]
19 | Cc1cccnc1-c1nc(-c2ccccc2O)n(C)n1 [Compound 614, 2-[2-methyl-5-(3-methyl-pyridin-2-yl)-2H-[1,2,4]triazol-3-yl]-phenol] | 6.9
20 | COc1cccc(-c2nc(-c3ncccc3C)nn2C)c1O [Compound 615, 6-Methoxy-2-[2-methyl-5-(3-methyl-pyridin-2-yl)-2H-[1,2,4]triazol-3-yl]-phenol] | 18
21 | Cc1cccnc1-c1nc(-c2cc(O)ccc2O)n(C)n1 [Compound 616, 4-Hydroxy-2-[2-methyl-5-(3-methyl-pyridin-2-yl)-2H-[1,2,4]triazol-3-yl]-phenol] | 35.8
22 | Cc1cccnc1-c1nc(-c2c(O)ccc3ccccc23)n(C)n1 [Compound 617, 1-[2-methyl-5-(3-methyl-pyridin-2-yl)-2H-[1,2,4]triazol-3-yl]-naphthalen-2-ol] | > 19
23 | Cc1cccnc1-c1nc(-c2ccc3ccccc3c2O)n(C)n1 [Compound 618, 2-[2-methyl-5-(3-methyl-pyridin-2-yl)-2H-[1,2,4]triazol-3-yl]-naphthalen-1-ol] | 1.5
24 | Oc1c(Cl)cc(Cl)cc1-c1nc(-c2ccccn2)n[nH]1 [Compound 619, 4,6-Dichloro-2-(5-pyridin-2-yl-2H-[1,2,4]triazol-3-yl)-phenol] | 0.3
25 | Oc1c(Br)cc(Br)cc1-c1nc(-c2ccccn2)n[nH]1 [Compound 620, 4,6-Dibromo-2-(5-pyridin-2-yl-2H-[1,2,4]triazol-3-yl)-phenol] | 0.6
26 | Oc1c(Br)cc(Cl)cc1-c1nc(-c2ccccn2)n[nH]1 [Compound 621, 4-Chloro-6-bromo-2-(5-pyridin-2-yl-2H-[1,2,4]triazol-3-yl)-phenol] | 0.5
27 | Cc1cccnc1-c1n[nH]c(-c2cc(Cl)cc(Cl)c2O)n1 [Compound 622, 4,6-Dichloro-2-[5-(3-methyl-pyridin-2-yl)-2H-[1,2,4]triazol-3-yl]-phenol] | 1.4
28 | Cc1cccnc1-c1n[nH]c(-c2cc(Br)cc(Br)c2O)n1 [Compound 623, 4,6-Dibromo-2-[5-(3-methyl-pyridin-2-yl)-2H-[1,2,4]triazol-3-yl]-phenol] | 1.5
29 | Cc1cccnc1-c1n[nH]c(-c2cc(Cl)cc(Br)c2O)n1 [Compound 624, 4-Chloro-6-bromo-2-[5-(3-methyl-pyridin-2-yl)-2H-[1,2,4]triazol-3-yl]-phenol] | 2.2
30 | Cn1nc(-c2ccccn2)nc1-c1cc(Cl)cc(Cl)c1O [Compound 625, 4,6-Dichloro-2-(2-methyl-5-pyridin-2-yl-2H-[1,2,4]triazol-3-yl)-phenol] | 3.2
31 | Cn1nc(-c2ccccn2)nc1-c1cc(Br)cc(Br)c1O [Compound 626, 4,6-Dibromo-2-(2-methyl-5-pyridin-2-yl-2H-[1,2,4]triazol-3-yl)-phenol] | 4.8
32 | Cn1nc(-c2ccccn2)nc1-c1cc(Cl)cc(Br)c1O [Compound 627, 6-Bromo-4-Chloro-2-(2-methyl-5-pyridin-2-yl-2H-[1,2,4]triazol-3-yl)-phenol] | 2.5
33 | c1ccc(-c2ncn(-c3ccccn3)n2)cc1 [Compound 628, 2-(3-Phenyl-[1,2,4]triazol-1-yl)-pyridine] | > 32
34 | Oc1ccccc1-c1ncn(-c2ccccn2)n1 [Compound 629, 2-(1-Pyridin-2-yl-1H-[1,2,4]triazol-3-yl)-phenol] | 16
35 | Oc1ccc(Cl)cc1-c1ncn(-c2ccccn2)n1 [Compound 630, 4-Chloro-2-(1-pyridin-2-yl-1H-[1,2,4]triazol-3-yl)-phenol] | 11
